Experimental data: patent US8633204B2 (Pfizer Inc., priority 2006, dated 2014)

Tested on: PI3-K in BT20 cells (phosphorylation of AKT at serine 473)
Experiment: PI3-Kα Cellular Assay (AKT Ser473 phosphorylation ELISA in BT20 cells)
Assay type: cell-based, human
Conditions: Homo sapiens, BT-20, pAKT Ser473 ELISA, 1 hour incubation
Description: Compounds of the present invention were evaluated for potency against PI3-K using a cellular assay as follows.
Healthy growing human breast cancer cells BT20 (PI3K mutated) are used for the assay. BT20 cells are grown in 10% FBS+GLN (1:100)+PS (1:100)+1 mM Sodium Pyruvate+0.1 mM Sodium Bicarbonate+Non-Essential Amino Acids Solution (1:100) MEM medium (MEM+all). […] The cells are re-suspended in 10% FBS MEM all and are centrifuged down at 1400 rpm for 5 minutes. The cells are re-suspended in 0.5% FBS MEM all and are counted on a cell counter. The cells are seeded at 25,000 cells/well in volume of 100 μL/well in 0.5% FBS MEM all in a 96 well flat-bottom plate. The negative control wells receive only 100 μL of 0.5% FBS MEM all medium without cells. The plate is incubated overnight in a cell culture incubator with 5% CO2 at 37° C.
On day 2, testing compounds are prepared in 0.5% FBS MEM all medium and serially diluted at 1:3 for 11 test concentrations. Each concentration of the compounds is tested in duplicate. The compound solutions are added at 25 μL/well to the corresponded wells in cell plate, and 25 μL/well of the vehicle (0.5% DMSO in 0.5% FBS MEM all) is added to the negative control wells (no cells) and the positive control wells (cells without compounds). The plate is incubated for 1 hour in a cell culture incubator with 5% CO2 at 37° C. After 1 hour of incubation, the medium is removed, 100 μL/well of cell lysis buffer is added into the cell plate, and shake for 15 minutes at room temperature. […] After 1 hour, empty the contents of the wells, wash the plate 4 times with the wash buffer, and add 100 μL of TMB substrate solution (catalog #T0440, Sigma) into each well, and incubate with gentle shaking at room temperature for […]. After 15 minutes of color development, add 100 μL of stop solution (1N hydrochloric acid) to each well, and read the plate at 450 nm on ELISA plate reader.

Row | IC50 [µM] | SMILES
1 | 0.00792 | COc1ncc(-c2cc3c(C)nc(N)nc3n(C3CCCC3)c2=O)cc1F [Compound 254, 2-amino-8-cyclopentyl-6-(5-fluoro-6-methoxypyridin-3-yl)-4-methylpyrido[23-d]pyrimidin-7(8H)-one]
2 | 0.249 | Cc1nc(N)nc2c1cc(-c1cn[nH]c1)c(=O)n2CC1CCCO1 (stereo not shown) [Compound 223, 2-amino-4-methyl-6-(1H-pyrazol-4-yl)-8-((tetrahydrofuran-2-yl)methyl)pyrido[2,3-d]pyrimidin-7(8H)-one]
3 | 0.0472 | Cc1nc(N)nc2c1cc(-c1cn[nH]c1)c(=O)n2[C@@H]1CC[C@H](O)C1 [Compound 162, 2-amino-8-[(1R,3S)-3-hydroxycyclopentyl]-4-methyl-6-(1H-pyrazol-4-yl)pyrido[2,3-d]pyrimidin-7(8H)-one]
4 | 0.0176 | Cc1nc(N)nc2c1cc(-c1ccc(N(C)C)nc1)c(=O)n2[C@H]1CC[C@@H](O)CC1 [Compound 181, 2-amino-6-[6-(dimethylamino)pyridin-3-yl]-8-(cis-4-hydroxycyclohexyl)-4-methylpyrido[2,3-d]pyrimidin-7(8H)-one]
5 | 0.116 | Cc1nc(N)nc2c1cc(-c1cnc3[nH]ccc3c1)c(=O)n2CC(C)(C)O [Compound 172, 2-amino-8-(2-hydroxy-2-methylpropyl)-4-methyl-6-(1H-pyrrolo[2,3-b]pyridin-5-yl)pyrido[2,3-d]pyrimidin-7(8H)-one]
6 | 0.0962 | Cc1nc(N)nc2c1cc(-c1cnc3ccccc3c1)c(=O)n2[C@H]1CC[C@@H](OCCO)CC1 [Compound 295, 2-amino-8-[cis-4-(2-hydroxyethoxy)cyclohexyl]-4-methyl-6-quinolin-3-ylpyrido[2,3-d]pyrimidin-7(8H)-one]
7 | 2.36 | Cc1nc(N)nc2c1cc(Br)c(=O)n2CC(C)(C)O [Compound 167, 2-amino-6-bromo-8-(2-hydroxy-2-methylpropyl)-4-methylpyrido[2,3-d]pyrimidin-7(8H)-one]
8 | 0.0251 | COc1ncc(-c2cc3c(C)nc(N)nc3n([C@H]3CC[C@H](O)CC3)c2=O)cn1 [Compound 273, 2-amino-8-(trans-4-hydroxycyclohexyl)-6-(2-methoxypyrimidin-5-yl)-4-methylpyrido[2,3-d]pyrimidin-7(8H)-one]
9 | 0.0793 | COc1ccc(-c2cc3c(C)nc(N)nc3n(CC(C)C)c2=O)cn1 [Compound 241, 2-Amino-8-isobutyl-6-(6-methoxy-pyridin-3-yl)-4-methyl-8H-pyrido[2,3-d]pyrimidin-7-one]
10 | 0.145 | COc1ccc(-c2cc3c(C)nc(N)nc3n(CC3CCOC3)c2=O)cn1 (stereo not shown) [Compound 220, 2-amino-6-(6-methoxypyridin-3-yl)-4-methyl-8-((tetrahydrofuran-3-yl)methyl)pyrido[2,3-d]pyrimidin-7(8H)-one]
11 | 0.00339 | COc1ncc(-c2cc3c(C)nc(N)nc3n([C@H]3CC[C@H](OC)CC3)c2=O)cc1F [Compound 180, 2-amino-6-(5-fluoro-6-methoxypyridin-3-yl)-8-(trans-4-methoxycyclohexyl)-4-methylpyrido[2,3-d]pyrimidin-7(8H)-one]
12 | 0.0714 | COc1ccc(-c2cc3c(C)nc(N)nc3n(C3CCOCC3)c2=O)cn1 [Compound 200, 2-amino-6-(6-methoxypyridin-3-yl)-4-methyl-8-(tetrahydro-2H-pyran-4-yl)pyrido[2,3-d]pyrimidin-7(8H)-one]
13 | 0.00802 | COc1ncc(-c2cc3c(C)nc(N)nc3n([C@H]3CC[C@@H](O)CC3)c2=O)cc1F [Compound 177]
14 | 0.0437 | COc1ncc(-c2cc3c(C)nc(N)nc3n([C@H]3CC[C@@H](O)CC3)c2=O)cn1 [Compound 272, 2-amino-8-(cis-4-hydroxycyclohexyl)-6-(2-methoxypyrimidin-5-yl)-4-methylpyrido[2,3-d]pyrimidin-7(8H)-one]
15 | 1.3 | Cc1nc(N)nc2c1cc(-c1cnn(C)c1)c(=O)n2[C@@H]1CC[C@@H](O)C1 [Compound 164, 2-amino-8-[(1R,3R)-3-hydroxycyclopentyl]-4-methyl-6-(1-methyl-1H-pyrazol-4-yl)pyrido[2,3-d]pyrimidin-7(8H)-one]

More lines, now with the values behind:

Row | SMILES | IC50 [µM]
16 | CNc1nc(C)c2cc(-c3ccc(OC)nc3)c(=O)n(C3CCCC3)c2n1 [Compound 140] | 0.000793
17 | Cc1nc(N)nc2c1cc(-c1cn[nH]c1)c(=O)n2C1CCC(=O)CC1 [Compound 176, 2-amino-4-methyl-8-(4-oxocyclohexyl)-6-(1H-pyrazol-4-yl)pyrido[2,3-d]pyrimidin-7(8H)-one] | 0.00466
18 | Cc1nc(N)nc2c1cc(Br)c(=O)n2[C@H]1CC[C@H](O)CC1 [Compound 157, 2-amino-6-bromo-8-(trans-4-hydroxycyclohexyl)-4-methylpyrido[2,3-d]pyrimidin-7(8H)-one] | 0.305
19 | COc1ccc(-c2cc3c(C)nc(N)nc3n([C@H]3CC[C@@H](OCC(N)=O)CC3)c2=O)cn1 [Compound 303] | 0.0205
20 | CNc1nc(C)c2cc(C(=O)Nc3ccccn3)c(=O)n(C3CCCC3)c2n1 [Compound 282, 8-cyclopentyl-4-methyl-2-(methylamino)-7-oxo-N-pyridin-2-yl-7,8-dihydropyrido[2,3-d]pyrimidine-6-carboxamide] | 0.265
21 | Cc1nc(N)nc2c1cc(-c1cccnc1N)c(=O)n2C1CCCC1 [Compound 125, 2-amino-6-(2-aminopyridin-3-yl)-8-cyclopentyl-4-methylpyrido[2,3-d]pyrimidin-7(8H)-one] | 9.01
22 | COc1ncc(-c2cc3c(C)nc(N)nc3n([C@H]3CC[C@H](OCC(N)=O)CC3)c2=O)cn1 [Compound 311, 2-({trans-4-[2-amino-6-(2-methoxypyrimidin-5-yl)-4-methyl-7-oxopyrido[2,3-d]pyrimidin-8(7H)-yl]cyclohexyl}oxy)acetamide] | 0.0519
23 | CCOC(=O)c1cccc(-c2cc3c(C)nc(NC)nc3n(C3CCCC3)c2=O)c1 [Compound 141, ethyl 3-[8-cyclopentyl-4-methyl-2-(methylamino)-7-oxo-7,8-dihydropyrido[2,3-d]pyrimidin-6-yl]benzoate] | 10
24 | Cc1nc(N)nc2c1cc(-c1ccc3c(c1)OCCO3)c(=O)n2[C@H]1CC[C@H](O)CC1 [Compound 261, 2-amino-6-(2,3-dihydro-1,4-benzodioxin-6-yl)-8-(trans-4-hydroxycylohexyl)-4-methylpyrido[23-d]pyrimidin-7(8H)-one] | 0.0348
25 | CCNc1nc(C)c2cc(-c3ccc(O)c(OC)c3)c(=O)n(C3CCCC3)c2n1 [Compound 136, 8-cyclopentyl-2-(ethylamino)-6-(4-hydroxy-3-methoxyphenyl)-4-methylpyrido[2,3-d]pyrimidin-7(8H)-one] | 0.0263
26 | COc1ccc(-c2cc3c(C)nc(N)nc3n([C@H]3CC[C@H](OCCO)CC3)c2=O)cn1 [Compound 286, 2-amino-8-[trans-4-(2-hydroxyethoxy)cyclohexyl]-6-(6-methoxypyridin-3-yl)-4-methylpyrido[2,3-d]pyrimidin-7(8H)-one] | 0.0131
27 | Cc1nc(N)nc2c1cc(-c1ccn[nH]1)c(=O)n2[C@H]1CC[C@H](OCCO)CC1 [Compound 301, 2-amino-8-[trans-4-(2-hydroxyethoxy)cyclohexyl]-4-methyl-6-(1H-pyrazol-3-yl)pyrido[2,3-d]pyrimidin-7(8H)-one] | 0.137
28 | CO[C@H]1CC[C@H](n2c(=O)c(-c3cn[nH]c3)cc3c(C)nc(N)nc32)CC1 [Compound 183, 2-amino-8-(trans-4-methoxycyclohexyl)-4-methyl-6-(1H-pyrazol-4-yl)pyrido[2,3-d]pyrimidin-7(8H)-one] | 0.00469
